The text below walks through data of US20220112194A1, “COMPOUNDS TARGETING PRMT5” (ALIGOS THERAPEUTICS, INC., priority 2020, published 2022).

The test system of assay [1] is A549 lung carcinoma cells. Briefly: Cell proliferation assay A549 (CellTiter-Glo, 7 days). It counts as cell-based. The settings on record: Homo sapiens, A549, 168 h, A549, 7 days, cell viability CellTiter-Glo 2.0. Here is the method: (§1) HepG2 hepatoma cells (ATCC, HB-8065) were maintained in DMEM with high glucose (Lonza, 12-914F) supplemented with 10% fetal bovine serum (FBS; Biowest, S181B-500) and 2 mM L-glutamine (Biowest, X0551-100) at 37° C. and 5% CO2. A549 lung carcinoma cells (ATCC, CCL-185) were maintained in F-12K medium (ThermoFisher 21127030) supplemented with 10% FBS at 37° C. and 5% CO2. Exponentially growing HepG2 or A549 were plated in white, clear-bottom 96-well plates (Corning, 3903) at a cell density of 2000 (HepG2) or 350 (A549) cells per well in 199 μL of HepG2 medium. Next, 1 μL of a 5-fold 9-point dilution series of test compound in DMSO was added to the different wells. Cells were incubated at 37° C. 5% CO2 for 7 days. Cell viability was assessed on day 7 with the CellTiter-Glo 2.0 Cell Viability assay kit (Promega, G9243) to quantify the intracellular amounts of ATP: first, 100 μL of cell culture medium was removed from each well, next 100 μL of CellTiter-Glo® 2.0 Reagent was added and plates were shaken for 2 minutes on an orbital shaker. After 10 minutes stabilization at room temperature, read-out was performed on a ThermoFisher VarioSkan Lux plate reader. Counts were normalized to DMSO control (0% inhibition) and the cytotoxic control (100% inhibition) and EC50 values were determined in GraphPad Prism 8 using the [Agonist] vs. response—Variable slope (four parameters) function.
(§2) As shown by the data of Table 2, compounds of Formula (I) have activity in this assay. A value of ‘A’ in the table below indicates an EC50 of <20 nM, a value of ‘B’ indicates an EC50≥20 nM to <100 nM, a value of ‘C’ indicates an EC50 value of EC50≥100 nM to <1000 nM and a value of ‘D’ indicates an EC50≥1000 nM
(Cellular ATP, detected with luciferase, serves as a proxy for viable cell number.)

Assay [2] has as its system HepG2 hepatoma cells. The experiment in a line: Cell proliferation assay HepG2 (CellTiter-Glo, 7 days). It counts as cell-based. Particulars: Homo sapiens, 168 h; HepG2, 7 days, cell viability CellTiter-Glo 2.0. Here is the method:
as §1, §2

The target in assay [3] is T1, PRMT5/MEP50 (Homo sapiens, UniProt O14744). The experiment in a line: PRMT5/MEP50 enzyme inhibition assay, Assay 1 (radioisotope filter binding, 3H-SAM, histone H2A). It counts as biochemical. Particulars: 1 μM 3H-SAM, 5 μM histone H2A, 60 min at 30° C. On the procedure: Compounds were tested for inhibition of methyltransferase activity in a radioisotope filter binding assay, similar to previously described in A selective inhibitor of PRMT5 with in vivo and in vitro potency in MCL models. Chan-Penebre et al., Nat Chem Biol. (2015) 11(6):432-7. In the standard PRMT5/MEP50 enzyme inhibition assay, compounds were tested in a 10-dose IC50 mode with 3- or 5-fold serial dilution, in singlet, starting at 1, 10, or 100 μM. Control compound, SAH (S-(5′-Adenosyl)-L-homocysteine), was tested in 10-dose IC50 mode with 3-fold serial dilution starting at 100 μM. Reactions were carried out at 1 μM 3H-SAM (PerkinElmer) and 5 μM histone H2A as substrates for methyl transfer. Following a 60 min incubation at 30° C., the reaction was stopped with 20% TCA. Each reaction was spotted on a filter plate (MultiScreen FB Filter plate, Millipore) and washed 5 times in PBS, after which scintillation fluid was added and signal was detected in a scintillation counter. Percent enzyme activity was calculated based on no inhibitor DMSO control as 100% activity. EC50 values were determined in GraphPad Prism 8 using the [inhibitor] vs. response—Variable slope (four parameters) function.
(§3) Compounds of Formula (I) show activity in this assay. A value of ‘A’ in the table below indicates an IC50 of <1 nM, a value of ‘B’ indicates an IC50≥1 nM to ≤100 nM, and a value of ‘C’ indicates an IC50 value of >100 nM.

For assay [4], the target named is T1, PRMT5/MEP50. Briefly: PRMT5/MEP50 enzyme inhibition assay, Assay 2 (384-well, MALDI mass spectrometry, SAM, histone H4 1-21 peptide). It counts as biochemical. The settings on record: 1 μM SAM, 0.1 μM histone H4 1-21 peptide, 18-hour incubation at rt. On the procedure: Compounds were tested for inhibition of methyltransferase activity in 384-well plate assay format using mass spectrometry technology. In this enzyme inhibition assay, compounds were tested in a 11-dose IC50 mode with 3-serial dilution, in duplicate, starting at 1, 10, or 100 μM. Reactions were carried out at 1 μM SAM and 0.1 μM histone H4 1-21 peptide as substrates for methyl transfer. Following an 18-hour incubation at rt, the reaction was stopped with 0.5% formic acid. Products of the reaction were captured while unreacted substrates were washed away, prior to MALDI mass spectrometry detection and analysis. Percent enzyme activity was calculated based on no inhibitor DMSO control as 100% activity. EC50 values were determined in GraphPad Prism 8 using the [inhibitor] vs. response—Variable slope (four parameters) function.
as §3

Some results are limits rather than exact numbers.

T1 sequence (O14744 whole entry): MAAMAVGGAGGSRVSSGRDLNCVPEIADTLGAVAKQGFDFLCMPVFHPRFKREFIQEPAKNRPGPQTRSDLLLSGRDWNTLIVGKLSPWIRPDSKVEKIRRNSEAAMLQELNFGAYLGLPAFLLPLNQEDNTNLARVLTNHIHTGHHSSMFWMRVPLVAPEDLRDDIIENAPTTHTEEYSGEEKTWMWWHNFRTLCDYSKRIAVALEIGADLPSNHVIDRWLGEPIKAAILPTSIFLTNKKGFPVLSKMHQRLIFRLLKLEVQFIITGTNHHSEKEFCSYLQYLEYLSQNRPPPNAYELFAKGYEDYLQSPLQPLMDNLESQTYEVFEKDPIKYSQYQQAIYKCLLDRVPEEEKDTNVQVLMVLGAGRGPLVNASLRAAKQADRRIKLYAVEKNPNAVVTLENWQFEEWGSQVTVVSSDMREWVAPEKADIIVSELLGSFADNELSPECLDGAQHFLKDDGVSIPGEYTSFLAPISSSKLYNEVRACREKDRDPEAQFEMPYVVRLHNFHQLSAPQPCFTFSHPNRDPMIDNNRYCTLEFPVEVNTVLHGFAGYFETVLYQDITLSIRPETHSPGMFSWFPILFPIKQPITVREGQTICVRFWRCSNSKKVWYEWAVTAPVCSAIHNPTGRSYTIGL
T1 sequence (Q9BQA1 whole entry partner): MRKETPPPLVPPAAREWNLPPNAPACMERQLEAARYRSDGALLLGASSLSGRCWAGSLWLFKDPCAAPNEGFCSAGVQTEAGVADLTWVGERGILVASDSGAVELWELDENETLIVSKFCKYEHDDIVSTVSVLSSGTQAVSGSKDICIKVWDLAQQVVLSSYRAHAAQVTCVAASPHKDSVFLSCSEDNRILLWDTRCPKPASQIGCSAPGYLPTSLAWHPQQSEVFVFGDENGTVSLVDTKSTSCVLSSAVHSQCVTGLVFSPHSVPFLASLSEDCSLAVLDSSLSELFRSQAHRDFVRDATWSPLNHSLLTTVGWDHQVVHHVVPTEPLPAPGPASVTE

Consider `Nc1nc2cc(OC[C@@H]3[C@@H](O)[C@@H](O)[C@]4(n5ccc6c(N)ncnc65)C[C@@H]34)ccc2cc1Br` (racemic) [Compound 17, rac-(2S,3R,4R,5S)-4-[(2-amino-3-bromo-7-quinolyl)oxymethyl]-1-(4-aminopyrrolo[2,3-d]pyrimidin-7-yl)bicyclo[3.1.0]hexane-2,3-diol], for which the EC50 in assay [1] and in assay [2] was at least 1000 nM throughout.
As to `C[C@]1(CCc2ccc3cc(Br)c(N)nc3c2)C[C@@H](n2ccc3c(N)ncnc32)[C@H](O)[C@@H]1O` [Compound 1], the IC50 in assay [3] and in assay [4] was under 1 nM each time.
As to `Nc1nc2cc(CC[C@@]34C[C@@H]3[C@@H](n3ccc5c(N)ncnc53)[C@H](O)[C@@H]4O)ccc2cc1Br` [Compound 2], the concentration giving a half-maximal response (EC50) in assay [1] and in assay [2] was under 20 nM in each case. Further, the IC50 in assay [3] and in assay [4] was under 1 nM throughout.
Turning to `C=C1[C@@H](n2ccc3c(N)ncnc32)[C@H](O)[C@H](O)[C@H]1CCc1ccc2cc(Br)c(Cl)nc2c1` [Compound 3], the 50% effective concentration (EC50) in assay [1] and in assay [2] was 100 to 1000 nM in each case. Further, the IC50 in assay [3] and in assay [4] was over 100 nM in each case.
With `C=C1[C@@H](n2ccc3c(N)ncnc32)[C@H](O)[C@H](O)[C@H]1CCc1ccc2cc(Br)c(N)nc2c1` [Compound 4], the EC50 in assay [1] and in assay [2] was under 20 nM in each case. For the same compound, the half-maximal inhibitory concentration (IC50) in assay [3] and in assay [4] was under 1 nM in each case.
`C[C@H]1[C@H](CCc2ccc3ccc(N)nc3c2)[C@@H](O)[C@@H](O)[C@@H]1n1ccc2c(N)ncnc21` [Compound 5]: the concentration for a half-maximal effect (EC50) in assay [1] and in assay [2] was 100 to 1000 nM throughout. Moreover, the IC50 in assay [3] and in assay [4] was under 1 nM each time.
With `Cc1cnc2cc(OC[C@@]34C[C@@H]3[C@@H](n3ccc5c(N)ncnc53)[C@H](O)[C@@H]4O)ccn12` [Compound 16], the EC50 in assay [1] and in assay [2] was at least 1000 nM each time. In addition, the half-inhibitory concentration (IC50) in assay [4] was under 1 nM.
On to `C[C@]1(CCc2ccc3cc(Cl)c(N)nc3c2)C[C@@H](n2ccc3c(N)ncnc32)[C@H](O)[C@@H]1O` [Compound 18], for which the EC50 in assay [1] and in assay [2] was under 20 nM each time. For the same compound, the IC50 in assay [4] is under 1 nM.
With `C[C@]1(CCc2ccc3cc(C(F)F)c(N)nc3c2)C[C@@H](n2ccc3c(N)ncnc32)[C@H](O)[C@@H]1O` [Compound 23], the EC50 in assay [1] and in assay [2] was under 20 nM each time. In assay [4], this compound showed an IC50 of under 1 nM.
For `C[C@]1(CCc2ccc3ccc(N)nc3n2)C[C@@H](n2ccc3c(N)ncnc32)[C@H](O)[C@@H]1O` [Compound 24], the EC50 in assay [1] and in assay [2] was 20 to 100 nM each time. The same compound came in with a half-inhibitory concentration (IC50) in assay [4] of under 1 nM.
For `CC(C)C(=O)O[C@H]1[C@H](n2ccc3c(N)ncnc32)C[C@](C)(CCc2ccc3nc(N)ccc3c2)[C@H]1OC(=O)C(C)C` [Compound 26-A], the EC50 in assay [1] and in assay [2] was at least 1000 nM in each case. This compound also gave an IC50 in assay [4] of over 100 nM.
Turning to `C[C@]1(CCc2ccc3cc(C#N)c(N)nc3c2)C[C@@H](n2ccc3c(N)ncnc32)[C@H](O)[C@@H]1O` [Compound 27], the EC50 in assay [1] and in assay [2] was 20 to 100 nM each time. Also, the concentration for half-maximal inhibition (IC50) in assay [4] was under 1 nM.
As to `C[C@]1(CCc2ccc3cc(Cl)c(N)nc3c2)C[C@@H](n2ccc3c(N)ncnc32)[C@H](O)[C@]1(C)O` [Compound 28], the EC50 in assay [1] fell in the range of 100 to 1000 nM; in assay [2], 20 to 100 nM. Further, in assay [4], the IC50 was under 1 nM.
Regarding `Cn1c(N)nc2cc(CC[C@@]3(C)C[C@@H](n4ccc5c(N)ncnc54)[C@H](O)[C@@H]3O)ccc2c1=O` [Compound 29], the 50% effective concentration (EC50) was 20 to 100 nM in assay [1] and under 20 nM in assay [2]. The IC50 in assay [4] is under 1 nM.
Consider `C[C@]1(CCc2cc(F)c3cc(Cl)c(N)nc3c2)C[C@@H](n2ccc3c(N)ncc(F)c32)[C@H](O)[C@@H]1O` [Compound 34, (1S,2R,3S,5R)-3-[2-(2-amino-3-chloro-5-fluoro-7-quinolyl)ethyl]-5-(4-amino-7-fluoro-pyrrolo[3,2-c]pyridin-1-yl)-3-methyl-cyclopentane-1,2-diol], for which the IC50 in assay [4] was under 1 nM.
The compound `Nc1ccc2ccc(CC[C@@]3(F)C[C@@H](n4ccc5c(N)ncnc54)[C@H](O)[C@@H]3O)cc2n1` [Compound 35, (1S,2S,3R,5R)-5-(4-amino-7H-pyrrolo[2,3-d]pyrimidin-7-yl)-3-(2-(2-aminoquinolin-7-yl)ethyl)-3-fluorocyclopentane-1,2-diol] returned an IC50 in assay [4] of under 1 nM.
Same read-out and setting: under `C[C@]1(CCc2cc(F)c3ccc(N)nc3c2)C[C@@H](n2ccc3c(N)ncc(F)c32)[C@H](O)[C@@H]1O` [Compound 42, (1S,2R,3S,5R)-3-(2-(2-amino-5-fluoroquinolin-7-yl)ethyl)-5-(4-amino-7-fluoro-1H-pyrrolo[3,2-c]pyridin-1-yl)-3-methylcyclopentane-1,2-diol] stands under 1 nM.
In the case of `C[C@]1(CCc2ccc3cc(Br)c(N)nc3c2)C[C@@H](n2ccc3c(N)ncc(F)c32)[C@H](O)[C@@H]1O` [Compound 50], the EC50 in assay [1] and in assay [2] was under 20 nM throughout. Besides, the half-inhibitory concentration (IC50) in assay [4] is under 1 nM.
With `C[C@]1(CCc2cc(F)c3cc(Cl)c(N)nc3c2)C[C@@H](n2ccc3c(N)nc(Cl)nc32)[C@H](O)[C@@H]1O` [Compound 53], the EC50 in assay [1] and in assay [2] was under 20 nM each time. This compound also gave a concentration for half-maximal inhibition (IC50) in assay [4] of under 1 nM.
In the case of `CCCCCOC(=O)Nc1ccc2ccc(CC[C@@]3(C)C[C@@H](c4ccc5c(N)ncnn45)[C@H](O)[C@@H]3O)cc2n1` [Compound 55], the EC50 in assay [1] and in assay [2] was 20 to 100 nM in each case. The compound also returned an IC50 in assay [4] of over 100 nM.
Take `C[C@]1(CCc2cc(F)c3cc(Cl)c(N)nc3c2)C[C@@H](c2ccc3c(N)ncnn23)[C@H](O)[C@@H]1O` [Compound 57]: the EC50 in assay [1] and in assay [2] was under 20 nM throughout.
With `COC[C@]1(CCc2ccc3cc(Br)c(N)nc3c2)C[C@@H](n2ccc3c(N)ncnc32)[C@H](O)[C@@H]1O` [Compound 58], the EC50 in assay [1] and in assay [2] was under 20 nM in each case.
In the case of `C[C@]1(CCc2ccc3cc(Br)c(N)nc3c2)C[C@@H](c2ccc3c(N)ncnn23)[C@H](O)[C@@H]1O` [Compound 59], the EC50 in assay [1] and in assay [2] was under 20 nM each time. Moreover, the IC50 in assay [4] was under 1 nM.
In turn, `C=C[C@]1(CCc2ccc3cc(Br)c(N)nc3c2)C[C@@H](n2ccc3c(N)ncnc32)[C@H](O)[C@@H]1O` [Compound 62] gave a half-maximal effective concentration (EC50) in assay [1] of under 20 nM.
Same read-out and setting: the figure for `C#C[C@]1(CCc2ccc3cc(Br)c(N)nc3c2)C[C@@H](n2ccc3c(N)ncnc32)[C@H](O)[C@@H]1O` [Compound 63] is under 20 nM; for `COC[C@]1(CCc2cc(F)c3cc(Cl)c(N)nc3c2)C[C@@H](c2ccc3c(N)ncnn23)[C@H](O)[C@@H]1O` [Compound 64] it is under 20 nM.

Usually EC50 stands for the midpoint of the concentration-response curve. The low end stands for a more potent agent, the high end for a less potent agent. As a reminder, the IC50 is the concentration that gives 50% inhibition. Higher therefore signals a need for much substance.
